Values quoted from earlier work in patent US6555140B1, “Composition and method for enhancing male fertility and libido” (priority 1999, dated 2003).

Columns and labels:
[1] = for share of the ingested amount metabolically degraded: transported from inside the intestine into the blood stream
[2] = in water

| share of what is ingested metabolically available [1] | share of the ingested amount metabolically degraded [1] | Solubility [2] | SMILES |
| --- | --- | --- | --- |
| about 70% | about 30% | Soluble in water up to 50 mg/ml | NCCCNCCCCNCCCN [Spermine Free Base, Spermine] |
| about 70% | about 30% | Soluble in water up to 50 mg/ml | NCCCCNCCCN [Spermidine Free Base, Spermidine] |
